The values that follow are results of earlier work, collected in US20220287302A1, “COMPOSITIONS FOR PATHOGEN IN[…] PATHOGEN REDUCTION MANAGEMENT” (priority 2020, published 2022).

In the case of `O=c1c(O)c(O)c1=O` [Squaric acid, 3,4-dihydroxy-3-cyclobutene-1,2 dione], the “pKa for the first proton” value (first proton) is given as 1.5. The “pKa for the second proton” value (second proton) is listed as 3.4.
